{"source": "paper PMC6680510", "about": "“Benzotriazine Di-Oxide Prodrugs for Exploiting Hypoxia and Low Extracellular pH in Tumors” (Molecules, 2019)", "key": {"[1]": {"test": "One-electron reduction potentials by pulse radiolysis", "assay_type": "physicochemical", "settings": "pH 7.0, equilibrium with redox indicator shown in square brackets", "method_in_brief": "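Redox equilibria at pH 7.0 (2.5 mM phosphate) established within 50 μs between one-electron reduced compound and viologen references MV^2+, TQ^2+ or V21^2+, generated by 4 MeV linac pulse radiolysis with time-resolved optical absorption. E^0′ vs NHE derived via Nernst equation from equilibrium constants, corrected for ionic strength.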"}, "SiHa cells [2]": {"test_system": "SiHa cells", "test": "IC50 assay modified for chronic hypoxia (oxia, hypoxia, anoxia)", "assay_type": "cell-based", "settings": "for IC50: Homo sapiens", "method": "There are relatively few viable cells in tumors at O2 concentrations as low as in the above anoxic experiments. In addition, extensive changes in gene expression occur under chronic exposure to intermediate O2 concentrations (chronic hypoxia), including the expression of proteins that regulate pHi. […] Therefore, oxic and anoxic exposures were also tested in these same experiments. The 24 h adaptation to hypoxia had little effect on the subsequent growth of the cultures at either pHe value (Figure S6).\nTo minimize problems with poor cell attachment under chronic hypoxia, the drugs were added from a 3-fold dilution series made in a separate plate, rather than by serial dilution in the plates containing the cells. In addition, the drugs were removed after the 4 h exposure by centrifuging the plates (200g × 5 min) prior to each aspiration. The same modifications were used for the oxic drug exposures in these experiments."}, "SiHa cells [3]": {"test_system": "SiHa cells", "test": "Effect of phenylpyruvate (MCT pan-inhibition) on cytotoxicity under anoxia", "settings": "anoxic SiHa cells", "description": "Effect of phenylpyruvate (PPV, 100 or 500 μM) on proliferation of SiHa cells following 4 h\nexposure under anoxia to PPV alone (A) or with cmpd 4a at pHe 7.4 (B) or pHe 6.5 (C). 3000 cells/well\nwere seeded in 96 well plates, and IC 50 values determined as in Figure S6. Each data point is mean ±\nSEM for three replicate cultures in the same experiment."}, "SiHa cells [4]": {"test_system": "SiHa cells", "test": "IC50 assay (inhibition of proliferation, 4 h exposure, SRB)", "settings": "SiHa; for IC50: Homo sapiens, 4 h", "method_in_brief": "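Cells exposed to compound for 4 h in titrated medium, then washed and regrown 5 days under standard conditions (oxia, pHe 7.4). Growth read by sulforhodamine B staining; IC50 from 4-parameter logistic regression of duplicate cultures.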"}, "[5]": {"test": "Solubility in AlphaMEM + 5% FBS, pH 7.4", "settings": "culture medium (AlphaMEM + 5% FBS), pH 7.4, plasma or biological fluid, kinetic from dmso stock"}, "[6]": {"test_system": "MDCK-II cells with forced expression of BCRP or Pgp", "test": "IC50 under anoxia in cells with forced expression of efflux transporters", "settings": "MDCK-II cell lines under anoxia, preliminary experiments", "description": "expression of BCRP or Pgp.\nCells were seeded at 300 cells/well in DMEM with 10% FBS in 96 well plates in an\nanaerobic chamber, allowed to attach for 2 h then exposed to drugs for 4 h under anoxia. Cells were\nthen washed with fresh medium and grown for 5 days under aerobic conditions before staining with\nSRB. Values are mean ± SEM from 2 separate experiments."}, "FaDu cells": {"test_system": "FaDu cells", "test": "IC50 assay (inhibition of proliferation, 4 h exposure, SRB)", "assay_type": "cell-based", "settings": "for IC50: Homo sapiens, 4 h"}, "UT-SCC-74B cells": {"test_system": "UT-SCC-74B cells", "test": "IC50 assay (inhibition of proliferation, 4 h exposure, SRB)", "assay_type": "cell-based", "settings": "UT-SCC-74B, UT-SCC-74B; for IC50: Homo sapiens, 4 h", "method": "Cells were seeded in 96-well plates (SiHa or FaDu 1500 cells/well, UT-SCC-74B 800 cells/well) in 100 μL. After incubation for 2 h, the drugs were added in 50 μL of the same titrated medium at 3× the final concentration to duplicate the wells. After a further 4 h the plates were checked for drug precipitation using a phase contrast microscope, then drugs were removed by aspirating and washing with the standard (pH 7.4) medium, then aspirating again and adding 150 μL of the medium. Cultures were then grown for 5 days before staining with sulphorhodamine B and measuring absorbance, with the estimation of IC50 values using 4-parameter logistic regression, as previously carried out.\nThe medium and plasticware was equilibrated in the chamber for 3 days prior to use. In the anoxia experiments, FaDu cells were plated in poly-L-lysine coated plates (Corning Cat # 356461) to improve attachment. […]\nFootnotes: a Number of experiments. b Anoxic cytotoxicity ratio = oxic IC50/anoxic IC50. c pH\ncytotoxicity ratio = IC50 at pHe 7.4/ IC50 at pHe 6.5. d Overall ratio = oxic IC50 pHe 7.4 / anoxic IC50 pHe\n6.5. Values are means and errors are SEM. For ratios, the errors are root mean square SEM. […]"}}, "note": "Values joined by “and” are separate entries in the source; they are usually repeats but may differ in a detail not shown here. Equal entries are not always repeated. Where two headings read alike, the source gives them in different places."}
{"smiles": "O=C(O)CCc1n[n+]([O-])c2ccccc2[n+]1[O-]", "note": "[Compound 4a, 3-(2-Carboxyethyl)benzo[e][1,2,4]triazine 1,4-Dioxide]", "values": [{"measurement": "E^0′ one-electron reduction potential", "setting": "[1]", "value": "−399 mV and −399 ± 7 [MV^2+] mV"}, {"measurement": "PCR (IC50 for pHe 7.4/IC50 for pHe 6.5)", "setting": "SiHa cells [2]; 0.2% O2", "value": "1.39 ± 0.19"}, {"measurement": "PCR (IC50 for pHe 7.4/IC50 for pHe 6.5)", "setting": "SiHa cells [2]; 20% O2", "value": "1.98 ± 0.93"}, {"measurement": "PCR (IC50 for pHe 7.4/IC50 for pHe 6.5)", "setting": "SiHa cells [2]; <0.01% O2", "value": "1.86 ± 0.59"}, {"measurement": "IC50", "setting": "SiHa cells [2]; 0.2% O2 (24 h before and during 4 h exposure), pHe 6.5", "value": "308 ± 1", "unit": "µM"}, {"measurement": "IC50", "setting": "SiHa cells [2]; 0.2% O2 (24 h before and during 4 h exposure), pHe 7.4", "value": "428 ± 57", "unit": "µM"}, {"measurement": "IC50", "setting": "SiHa cells [2]; 4 h, 20% O2, pHe 6.5, 4 h", "value": "707 ± 321", "unit": "µM"}, {"measurement": "IC50", "setting": "SiHa cells [2]; 4 h, 20% O2, pHe 7.4, 4 h", "value": "1400 ± 162", "unit": "µM"}, {"measurement": "IC50", "setting": "SiHa cells [2]; 4 h, <0.01% O2, pHe 6.5, 4 h", "value": "160 ± 45", "unit": "µM"}, {"measurement": "IC50", "setting": "SiHa cells [2]; 4 h, <0.01% O2, pHe 7.4, 4 h", "value": "298 ± 44", "unit": "µM"}, {"measurement": "ACR (IC50 for 20% O2/IC50 for <0.01% O2)", "setting": "SiHa cells [2]; pHe 6.5", "value": "4.42 ± 2.36"}, {"measurement": "HCR (IC50 for 20% O2/IC50 for 0.2% O2)", "setting": "SiHa cells [2]; pHe 6.5", "value": "2.30 ± 1.04"}, {"measurement": "ACR (IC50 for 20% O2/IC50 for <0.01% O2)", "setting": "SiHa cells [2]; pHe 7.4", "value": "4.70 ± 0.88"}, {"measurement": "HCR (IC50 for 20% O2/IC50 for 0.2% O2)", "setting": "SiHa cells [2]; pHe 7.4", "value": "3.28 ± 0.58"}, {"measurement": "Effect of pan-inhibition of MCT by phenylpyruvate on sensitivity", "setting": "SiHa cells [3]", "value": "no effect"}, {"measurement": "IC50", "setting": "SiHa cells [4]; read-out: Anoxic IC50, SiHa, pHe 6.5, 4 h, anoxic", "value": "97 ± 4", "unit": "µM"}, {"measurement": "IC50", "setting": "SiHa cells [4]; read-out: Anoxic IC50, SiHa, pHe 7.4, 4 h, anoxic", "value": "259 ± 26", "unit": "µM"}, {"measurement": "IC50", "setting": "SiHa cells [4]; read-out: Oxic IC50, SiHa, pHe 6.5, 4 h, oxic", "value": "798 ± 43", "unit": "µM"}, {"measurement": "IC50", "setting": "SiHa cells [4]; read-out: Oxic IC50, SiHa, pHe 7.4, 4 h, oxic", "value": "1950 ± 170", "unit": "µM"}, {"measurement": "TMR (overall TME ratio = oxic IC50 pHe 7.4/anoxic IC50 pHe 6.5)", "setting": "SiHa cells [4]", "value": "20.2 ± 2.0"}, {"measurement": "PCR Anoxic (IC50 at pHe 7.4/IC50 at pHe 6.5)", "setting": "SiHa cells [4]; anoxic", "value": "2.68 ± 0.29"}, {"measurement": "PCR oxic (IC50 at pHe 7.4/IC50 at pHe 6.5)", "setting": "SiHa cells [4]; oxic", "value": "2.45 ± 0.25"}, {"measurement": "ACR (anoxic cytotoxicity ratio = oxic IC50/anoxic IC50)", "setting": "SiHa cells [4]; pHe 6.5", "value": "8.26 ± 0.58"}, {"measurement": "IC50 fold higher than for SN30000", "setting": "SiHa cells [4]; pHe 6.5 under anoxia, representative experiment", "value": "approximately 50 fold"}, {"measurement": "ACR (anoxic cytotoxicity ratio = oxic IC50/anoxic IC50)", "setting": "SiHa cells [4]; pHe 7.4", "value": "7.54 ± 1.00"}, {"measurement": "PCR (pH cytotoxicity ratio)", "setting": "SiHa cells [4]; representative experiment (Figure 3), oxia and anoxia", "value": "~ 2.5"}, {"measurement": "ACR (anoxia cytotoxicity ratio)", "setting": "SiHa cells [4]; representative experiment (Figure 3), pHe 7.4 and 6.5", "value": "~ 8"}, {"measurement": "solubility", "setting": "[5]", "value": 17.1, "unit": "mM"}, {"measurement": "Effect of overexpression of BCRP or Pgp efflux transporters on sensitivity", "setting": "[6]", "value": "no effect"}, {"measurement": "TMR (oxic IC50 pHe 7.4/anoxic IC50 pHe 6.5)", "setting": "FaDu cells", "value": "9.36 ± 1.68"}, {"measurement": "IC50", "setting": "FaDu cells; pHe 6.5, 4 h, anoxic, read-out: Anoxic IC50", "value": "142 ± 21", "unit": "µM"}, {"measurement": "IC50", "setting": "FaDu cells; pHe 6.5, 4 h, oxic, read-out: Oxic IC50", "value": "507 ± 27", "unit": "µM"}, {"measurement": "IC50", "setting": "FaDu cells; pHe 7.4, 4 h, anoxic, read-out: Anoxic IC50", "value": "325 ± 18", "unit": "µM"}, {"measurement": "IC50", "setting": "FaDu cells; pHe 7.4, 4 h, oxic, read-out: Oxic IC50", "value": "1330 ± 136", "unit": "µM"}, {"measurement": "PCR Anoxic (IC50 at pHe 7.4/IC50 at pHe 6.5)", "setting": "FaDu cells; anoxic", "value": "2.29 ± 0.36"}, {"measurement": "PCR oxic (IC50 at pHe 7.4/IC50 at pHe 6.5)", "setting": "FaDu cells; oxic", "value": "2.62 ± 0.30"}, {"measurement": "ACR (oxic IC50/anoxic IC50)", "setting": "FaDu cells; pHe 6.5", "value": "3.58 ± 0.56"}, {"measurement": "ACR (oxic IC50/anoxic IC50)", "setting": "FaDu cells; pHe 7.4", "value": "4.08 ± 0.48"}, {"measurement": "IC50", "setting": "UT-SCC-74B cells; pHe 6.5, 4 h, 20% O2, read-out: Oxic IC50", "value": "297 ± 74", "unit": "µM"}, {"measurement": "IC50", "setting": "UT-SCC-74B cells; pHe 6.5, 4 h, <0.01% O2, read-out: Anoxic IC50", "value": "97.6 ± 12.3", "unit": "µM"}, {"measurement": "IC50", "setting": "UT-SCC-74B cells; pHe 7.4, 4 h, 20% O2, read-out: Oxic IC50", "value": "863 ± 66", "unit": "µM"}, {"measurement": "IC50", "setting": "UT-SCC-74B cells; pHe 7.4, 4 h, <0.01% O2, read-out: Anoxic IC50", "value": "225 ± 26", "unit": "µM"}, {"measurement": "TME ratio (oxic IC50 pHe 7.4/anoxic IC50 pHe 6.5)", "setting": "UT-SCC-74B cells", "value": "8.84 ± 1.30"}, {"measurement": "PCR Anoxic (IC50 at pHe 7.4/IC50 at pHe 6.5)", "setting": "UT-SCC-74B cells; anoxic", "value": "2.31 ± 0.39 and 2.9"}, {"measurement": "PCR oxic (IC50 at pHe 7.4/IC50 at pHe 6.5)", "setting": "UT-SCC-74B cells; oxic", "value": "2.91 ± 0.76 and 2.3"}, {"measurement": "ACR (oxic IC50/anoxic IC50)", "setting": "UT-SCC-74B cells; pHe 6.5", "value": "3.04 ± 0.85"}, {"measurement": "ACR (oxic IC50/anoxic IC50)", "setting": "UT-SCC-74B cells; pHe 7.4", "value": "3.84 ± 0.53"}]}
